The text below walks through data of US20050255041A1, “Cancerous disease modifying antibodies” (Arius Research, Inc., priority 2004, published 2005).

Read-outs that look alike come from different tables or passages of the source.

One series deals with Hs888 Lu. The note with it: 5 days; AR2A72.10 and AR3BD-26 20 μg/mL, anti-fas and anti-Her2/neu 10 μg/mL, anti-EGFR 5 μg/mL, cycloheximide 0.5 μM, NaN3 0.1%.
The nature of series [1]: Live/Dead cytotoxicity assay, hybridoma supernatant. The series is classed as cell-based. The conditions noted are these: human, hybridoma supernatant (or cycloheximide positive control), calcein. The procedure: Three human breast cancer cell lines were tested: MDA-MB-231, MDA-MB-468 and SKBR-3. […] The wells that served as the positive controls were aspirated until empty and 100 μL of sodium azide (NaN3) or cycloheximide was added. After 5 days of treatment, the plates were then emptied by inverting and blotting dry. […] The AR2A72.10 hybridoma produced specific cytotoxicity of 15,27 and 44 percent in MDA-MB-231, MDA-MB-468 and SKBR-3 cells respectively. The known non-specific cytotoxic agent cycloheximide produced cytotoxicity as expected given the limitations of in vitro biological assays.

Description for Hs888 Lu: Antibodies were tested against a panel of ovarian cancer, and normal cell lines. Two ovarian cancer (OVCAR-3, Sk-OV-3) and non-cancer (CCD-27sk, Hs888.Lu) cell lines were obtained from the ATCC, Manassas, Va. A2780-cp, A2780-s, C-13, OV2008, ES-2, Hey, OCC-1, OVCA-429 were obtained from the Ottawa Regional Cancer Center (Ottawa, ON). The Live/Dead cytotoxicity assay was obtained from Molecular Probes (Eugene, Oreg.). The assays were performed according to the manufacturer's instructions with the changes outlined below. Cells were plated before the assay at the predetermined appropriate density. After 2 days, purified antibody or controls were diluted into media, and then 100 microliters were transferred to the cell plates and incubated in a 5 percent CO2 incubator for 5 days. The plate was then emptied by inverting and blotted dry. Room temperature DPBS containing MgCl2 and CaCl2 was dispensed into each well from a multi-channel squeeze bottle, tapped three times, emptied by inversion and then blotted dry. 50 microliters of the fluorescent calcein dye diluted in DPBS containing MgCl2 and CaCl2 was added to each well and incubated at 37° C. in a 5 percent CO2 incubator for 30 minutes. […]

For `[N-]=[N+]=[N-]` [NaN3, sodium azide], the “In vitro cytotoxicity, Hs888 Lu (normal)” value with Hs888 Lu is “+++ (4/4 experiments greater than threshold cytotoxicity)”.

As to `C[C@@H]1C[C@@H]([C@H](O)CC2CC(=O)NC(=O)C2)C(=O)[C@@H](C)C1` [Cycloheximide], the cytotoxicity at 5 days was 49% in series [1] (read-out: Cytotoxicity (%) MDA-MB-231 Average), 24% in series [1] (read-out: Cytotoxicity (%) MDA-MB-468 Average) and 56% in series [1] (read-out: Cytotoxicity (%) SKBR-3 Average).
